# Legend:
# [1] = tested on: cabbage phospholipase D (cPLD, EC 3.1.4.4); test: Purified cabbage PLD activity (choline release from PC), enzyme kinetics with lipids; format: biochemical; settings: for Ki: cPLD 3 u/reaction, 30° C., PC 0.5-5 mM, Ki from Slope = Km/Vm (1 + [I]/Ki); for Vm app: cPLD in presence of the lipid, enzyme alone Vm 0.29 (nmoles/sec); for inhibition of cPLD (in words): compared with PSDP
# Experimental: Reactions were terminated at 30 sec intervals and choline release quantitated as in FIG. 2 legend. Values represent the mean for n≧4 for reactions in the absence of PSDP (●, r^2=0.963) and the mean for n≧3 with PSDP (Δ, r^2=0.995, 0.971 and 0.953 for 10, 100 and 1000 nM, respectively). CS Chem3D Pro software (CambridgeSoft Corp., Cambridge, Mass.) was used to calculate an energy minimized model of PSDP (inset).
# (§1) PMN lysates (90-130 μg protein), purified phospholipase D (3-30 units) (EC 3.1.4.4., Sigma Chemical Co.) or recombinant hPLD1b were warmed (37° C. for mammalian enzyme and 30° C. for cabbage, 3 min) and exposed to PSDP, PSMP or FDP (10-1000 nM, 5 min, 37° C. or 30° C.) followed by PC (0.5 to 5 mM) in Tris-HCl (50 mM pH 7.5) with CaCl2 (30 mM). Reactions were terminated at 30 second intervals (0-90 seconds) with Tris-HCl (1 M) plus EDTA (50 mM). Choline release was quantitated as in ref 26.
# [2] = tested on: PLD activity in PMN lysates; test: PLD activity in PMN lysates after LTB4, lipid added to the lysate; format: biochemical, human; settings: 100 nM added to PMN lysates 60 sec after LTB4 100 nM
# Experimental: Lysates were generated from cells at rest or after exposure to agonist using a lysis buffer comprised of 0.1 M Hepes (pH 7.4), 0.7 mM sodium orthovanadate, 10 μM p-nitrophenylphosphate, 10 mM EGTA, 5.5% triton X-100, 0.5 M β-glycerophosphate, 10 mM phenylmethylsulfonylfluoride, 0.1 mM ammonium molybdate, 12 mM DFP, 5 μgml^−1 leupeptin, 2 μgml^−1 aprotinin and 7 μgml^−1 pepstatin A (as in ref 25) and utilized for bioassay.
# as §1
# Because PLD activation occurs in vivo in the presence of many cofactors which modulate its activity, it was also determined the impact of PSDP on PLD activity in PMN lysates. Sixty seconds following LTB4, PSDP levels decreased (28%, FIG. 1) and PLD activity was maximal (FIG. 2).
# [3] = molecular target: T1, recombinant human PLD1b (rhPLD1b) (Homo sapiens, UniProt Q13393); test: Recombinant human PLD1b activity (choline release from PC), enzyme kinetics with PSDP; format: biochemical
# T1 construct: made in house; host or cells: Spodoptera frugiperda Sf9 cells, recombinant baculovirus (pACGHLT transfer vector)
# T1 sequence (Q13393 1-1036 isoform Q13393-2): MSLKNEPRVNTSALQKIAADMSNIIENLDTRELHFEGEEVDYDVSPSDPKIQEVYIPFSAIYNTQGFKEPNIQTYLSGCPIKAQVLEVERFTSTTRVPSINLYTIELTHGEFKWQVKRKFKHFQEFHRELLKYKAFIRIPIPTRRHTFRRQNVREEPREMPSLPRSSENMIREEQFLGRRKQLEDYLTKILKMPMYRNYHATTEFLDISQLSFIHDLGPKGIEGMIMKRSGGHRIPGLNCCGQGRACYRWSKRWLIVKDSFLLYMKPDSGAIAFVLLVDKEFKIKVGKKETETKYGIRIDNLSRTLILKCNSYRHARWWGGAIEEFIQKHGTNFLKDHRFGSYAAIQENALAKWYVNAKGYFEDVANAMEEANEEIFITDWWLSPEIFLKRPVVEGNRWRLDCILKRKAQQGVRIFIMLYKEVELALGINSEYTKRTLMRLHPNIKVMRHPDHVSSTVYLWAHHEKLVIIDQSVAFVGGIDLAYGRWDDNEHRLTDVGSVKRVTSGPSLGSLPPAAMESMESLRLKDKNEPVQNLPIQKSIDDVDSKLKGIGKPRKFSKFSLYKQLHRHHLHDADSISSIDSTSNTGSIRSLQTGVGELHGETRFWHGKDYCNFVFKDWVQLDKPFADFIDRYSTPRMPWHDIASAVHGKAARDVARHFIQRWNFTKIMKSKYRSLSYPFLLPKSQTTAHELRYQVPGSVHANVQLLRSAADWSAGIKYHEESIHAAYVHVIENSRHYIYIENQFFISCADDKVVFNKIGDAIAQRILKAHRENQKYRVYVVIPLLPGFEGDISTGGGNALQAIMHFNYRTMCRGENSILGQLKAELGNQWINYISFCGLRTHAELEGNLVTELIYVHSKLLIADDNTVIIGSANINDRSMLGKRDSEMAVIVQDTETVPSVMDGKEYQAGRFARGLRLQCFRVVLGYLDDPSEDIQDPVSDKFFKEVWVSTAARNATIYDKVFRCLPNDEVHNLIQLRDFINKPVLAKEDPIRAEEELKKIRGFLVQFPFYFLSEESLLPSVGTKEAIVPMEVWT
# Experimental: Spodoptera frugiperda (Sf9) cells were cultured in suspension at 2×10^5 to 2×10^6 cells/ml TC 100 medium supplemented with 10% fetal calf serum (Gibco). A cDNA encoding human PLD1b (cloned from placental tissue) was inserted into the transfer vector pACGHLT (Pharmingen) downstream of, and in frame with, vector sequences encoding glutathione-S-transferase (GST), hexahistidine, a protein kinase A phosphorylation site and a thrombin cleavage site. The GST-hPLD1b construct was cotransfected into Sf9 cells with linearized, polyhedrin-minus (PH-), AcMNPV DNA, Bac-N-Blue, according to the supplier's instructions (Invitrogen). Homologous recombination between linearized virus and the transfer vector restored the function of essential viral gene ORF1629 to yield infectious, recombinant virus. After two rounds of plaque-purification, recombinant virus was amplified by large scale infections of Sf9 cells until a titer of 8×10^7 pfu/ml was obtained. […]
# as §1, with “Reactions were terminated at 30 second intervals (0-90 seconds) with Tris-HCl (1 M) plus EDTA (50 mM).” left out
# [32P]-PSDP in human PMN = PSDP remodeling in [32P]-labeled human PMN (TLC, phosphoimaging); format: cell-based
# Experimental: Panel A: Scheme for aspirin-triggered 15-epi-LXA4 biosynthesis and structure of the stable analog, 15-epi-16-para-fluoro-phenoxy-LXA4-methyl ester (15-epi-LXa) (left), and hypothetical scheme for PIPP signaling (right). PMN were labeled with [γ-^32P]-ATP and incubated (12.5×10^6 ml^−1, 37° C.) with LTB4 (●, 100 nM), 15-epi-LXa (♦, 100 nM), vehicle (□, 0.1% ethanol) or 15-epi-LXa (100 nM, 5 min) followed by LTB4 (▴, 100 nM). Non-saponifiable lipids were extracted and separated by TLC, and [^32P]-incorporation was quantitated by phosphoimaging (see Methods). Values are densitometric measurements.
# Peripheral venous blood (˜180 ml) was obtained by venipuncture from healthy volunteers who denied taking any medication for at least two weeks and had given written informed consent to a protocol approved by Brighamn and Women's Hospital's Human Research Committee. PMN were isolated from whole blood and steady state labeled with [γ-^32P]ATP (40 μCiml^−1, 90 min, 37° C.) as in (Levy, B. D., Petasis, N. A., and Serhan, C. N. (1997) Polyisoprenyl phosphates in intracellular signalling. Nature 389, 985-989). Labeled PMN were resuspended (20×10^6 ml^−1 PBS with 1 mM CaCl2, pH 7.40) and exposed to LTB4 (100 nM), 15-epi-LXa (100 nM) or vehicle (0.1% EtOH) for 0 to 300 seconds (37° C.). From each incubation, aliquots were removed at indicated intervals to determine the radiolabeling of nonsaponifiable lipids (10-12×10^6 PMN) and PLD activity (1-1.25×10^6 PMN). Materials present in each incubation were saponified, extracted and separated by TLC with phosphoimaging (model 425E and integration software; Molecular Dynamics), which was used for PSDP mass determination as in ref 22.
# human PMN = test: LTB4-stimulated superoxide anion generation by human PMN (cytochrome c); format: cell-based; settings: 15-epi-LXa 1-100 nM, 5 min, then LTB4 100 nM, 10 min, 37° C.
# Experimental: (§2) Cell lysates (2-5×10^6 cells, 90-130 μg protein) were prepared from the same aliquots of PMN used to determine PSDP (see FIG. 1 & Methods), warmed to 37° C. and exposed to PC (2 mM in 50 mM Tris-HCl, pH 7.5, plus 30 mM CaCl2). Reactions were terminated at 30 sec intervals and choline release was quantitated (26). […] Superoxide anion generation by freshly isolated human PMN was determined (10 min, 37° C.) for LTB4 (100 nM), 15-epi-LXa (100 nM), and increasing concentrations of 15-epi-LXa (1-100 nM, 5 min, 37° C.) followed by LTB4 (100 nM, 10 min, 37° C.). Values reported in Panel C are the mean±S.E. for n=3 separate PMN donors. *P<0.05 by Student's t-test.
# Freshly isolated human PMN (1-3×10^6 PMN/ml HBSS+1.6 mM CaCl2) were incubated (5 min, 37° C.) in the presence of 15-epi-LXa (1-100 nM) or vehicle (0.1% ethanol), and then exposed (10 min) to LTB4 (100 nM) in the presence of cytochrome c (7 mg/ml). Superoxide anion generation was determined as in ref 22.
# [4] = tested on: PLD activity in human PMN; test: LTB4-stimulated PLD activity in lysates of treated human PMN; format: cell-based
# Experimental: as §2
# Peripheral venous blood (˜180 ml) was obtained by venipuncture from healthy volunteers who denied taking any medication for at least two weeks and had given written informed consent to a protocol approved by Brighamn and Women's Hospital's Human Research Committee. […]
# as §1, with “Reactions were terminated at 30 second intervals (0-90 seconds) with Tris-HCl (1 M) plus EDTA (50 mM).” left out
# [5] = effect on LTB4-stimulated changes in PSDP
compound,measurement,setting,value
"CC(C)=CCC/C(C)=C/CC/C(C)=C/C1C(COP(=O)(O)OP(=O)(O)O)C1(C)CC/C=C(\C)CCC=C(C)C (stereo in doubt) [Presqualene diphosphate, presqualene diphosphate]",mode of inhibition (Lineweaver-burk analyses),[1]; PSDP 10 to 1000 nM,competitive inhibition model
same,Ki,[1],20 nM
same,Vm app,[1],0.25
same,inhibition of PLD activity,[2],89.5+/−9.7%
same,Ki,"[3]; rhPLD1b 0.3 u/reaction, 37° C.",6 nM
same,Vm app,"[3]; rhPLD1b in presence of the lipid, enzyme alone Vm 0.36 (nmoles/sec)",0.03
"CC(C)=CCC/C(C)=C/CC/C(C)=C/C1C(COP(=O)(O)O)C1(C)CC/C=C(\C)CCC=C(C)C (stereo in doubt) [Presqualene monophosphate, presqualene monophosphate]",loss in inhibitory potency compared to PSDP,[1]; cPLD,greater than 100 fold
same,Ki,[1],3210 nM
same,Vm app,[1],0.36
"COC(=O)CCC[C@H](O)[C@H](O)/C=C/C=C/C=C\C=C\[C@H](O)COc1ccc(F)cc1 [15-epi-LXa, 15-epi-16-para-fluoro-phenoxy-LXA4-methyl ester]",effect alone on rate of PIPP remodeling,"[32P]-PSDP in human PMN; 100 nM, without LTB4",did not affect the rate of PIPP remodeling
same,increase in [32P]-PSDP,"[32P]-PSDP in human PMN; 15-epi-LXa 100 nM, 5 min, then equimolar LTB4 100 nM, at 60 sec",~72%
same,potency relative to 16-phenoxy-LXA4 and LXA4,[32P]-PSDP in human PMN; [5],1-2 orders of magnitude
same,rank order of potency,[32P]-PSDP in human PMN; [5],15-epi-LXa>16-phenoxy-LXA4>LXA4
same,inhibition of LTB4-stimulated O2- generation (in words),human PMN,potently inhibited
same,inhibition of LTB4-stimulated PLD activity,"[4]; 15-epi-LXa 100 nM, 5 min, then LTB4 100 nM, at 60 sec",~81%
"COC(=O)CCC[C@H](O)[C@H](O)/C=C/C=C/C=C\C=C\[C@H](O)COc1ccccc1 [16-phenoxy-LXA4, 16-phenoxy-LXA4-methyl ester]",rank order of potency,[32P]-PSDP in human PMN; [5],15-epi-LXa>16-phenoxy-LXA4>LXA4
"CCCCC/C=C\C[C@@H](O)/C=C/C=C/C=C\[C@@H](O)CCCC(=O)O [LTB4, leukotriene B4]",decrease in [32P]-PSDP,"[32P]-PSDP in human PMN; LTB4 100 nM, within 60 sec, 37° C.",28%
same,time of maximal increase in PLD activity,[4]; LTB4 100 nM,≤ 60 s
"CCCCC[C@H](O)/C=C/C=C\C=C\C=C\[C@@H](O)[C@@H](O)CCCC(=O)O [LXA4, lipoxin A4]",rank order of potency,[32P]-PSDP in human PMN; [5],15-epi-LXa>16-phenoxy-LXA4>LXA4
CC(C)=CCC/C(C)=C/CC/C(C)=C/CC/C=C(\C)CC/C=C(\C)CCC=C(C)C [Squalene],Vm app,[1],0.46
same,inhibition of cPLD (in words),[1],Comparable inhibition was not evident
phosphatidic acid,Vm app,[1],0.43
same,inhibition of cPLD (in words),[1],Comparable inhibition was not evident

# Reference: US6864288B2, “Regulation of phospholipase D activity” (Brigham & Women's Hospital, Inc., priority 1999, dated 2005)
